According to paper PMC7031696 (Cell chemical biology, 2019):
pIC50: −log10 of the molar value. Like-named read-outs stand apart in the source and are kept apart here.

Key:
[1] = test system: asynchronous 3D7-A10 parasite cultures; assay: Standard 72-h exposure asexual blood stage susceptibility assay (IC50^72h); format: cell-based, Plasmodium falciparum; details: Plasmodium falciparum, 3D7, 72 h, read-out: Overall (72hr assay) Mean IC50 (IC50^72h)
[2] = test system: Plasmodium falciparum 3D7-A10 parasites; assay: Stage specificity assay (8-h exposure of synchronized stages, IC50^8h); format: cell-based; details: for pIC50: Plasmodium falciparum
[3] = test system: 3D7-MR4 trophozoite parasite-infected RBCs; assay: Metabolomic profiling (hydrophilic metabolite changes, UHPLC-MS); format: cell-based, Plasmodium falciparum

## OC(c1cc(C(F)(F)F)nc2c(C(F)(F)F)cccc12)C1CCCCN1 (stereo not drawn) [Mefloquine, reference compound]
[1]
  pIC50: 8.01
[2]; 3D7-A10
  Ratio lowest IC50 8hr/IC50 72hr: 3.0
[2]; 3D7, read-out: Early rings Mean IC50 (IC50^8h), 8-h exposure 0–8 hr, 3D7-A10, survival at 60 h
  pIC50: 6.59
[2]; 3D7, read-out: Early trophozoites Mean IC50 (IC50^8h), 8-h exposure 16–24 hr, 3D7-A10, survival at 60 h
  pIC50: 7.54
[2]; 3D7, read-out: IC50^8h values, text summary of Table S1
  pIC50: > 6.52
[2]; 3D7, read-out: Late rings Mean IC50 (IC50^8h), 8-h exposure 8–16 hr, 3D7-A10, survival at 60 h
  pIC50: 6.83
[2]; 3D7, read-out: Late trophozoites Mean IC50 (IC50^8h), 8-h exposure 24–32 hr, 3D7-A10, survival at 60 h
  pIC50: 7.53
[2]; 3D7, read-out: Schizonts Mean IC50 (IC50^8h), 8-h exposure 32–40 hr, 3D7-A10, survival at 60 h
  pIC50: 6.86
[2]; period when the parasite was most susceptible (lowest IC50^8h)
  Stage of peak activity (Figure 6): only in trophozoites
[2]; stage(s) with the lowest IC50^8h
  Peak Activity (Table S1): Trophs
[3]; 10 × IC50^72h, 2.5 hr, trophozoites
  changes within the set of metabolites detected (low fold change group): did not induce major changes
[3]; metabolite 3-phosphoglycerate, log2 fold change
  Log2(fold changes) 3-phosphoglycerate: 0.2359
[3]; metabolite 4-Pyridoxic acid, log2 fold change
  Log2(fold changes) 4-Pyridoxic acid: 0.0740
[3]; metabolite 4-aminobutyrate, log2 fold change
  Log2(fold changes) 4-aminobutyrate: -0.0258
[3]; metabolite 4-phosphopantetheine, log2 fold change
  Log2(fold changes) 4-phosphopantetheine: 0.0000
[3]; metabolite 4-phosphopantothenate, log2 fold change
  Log2(fold changes) 4-phosphopantothenate: 0.0024
[3]; metabolite 5-aminopentanoic acid, log2 fold change
  Log2(fold changes) 5-aminopentanoic acid: 0.0000
[3]; metabolite 5-methyl-THF, log2 fold change
  Log2(fold changes) 5-methyl-THF: 0.0000
[3]; metabolite 5-phosphoribosyl-1-pyrophosphate, log2 fold change
  Log2(fold changes) 5-phosphoribosyl-1-pyrophosphate: 0.0000
[3]; metabolite 6-phospho-D-gluconate, log2 fold change
  Log2(fold changes) 6-phospho-D-gluconate: -0.0079
[3]; metabolite HVDD
  Log2(fold change) HVDD: 0.0000
[3]; metabolite Hydroxyisocaproic acid
  Log2(fold change) Hydroxyisocaproic acid: 0.0000
[3]; metabolite IDP
  Log2(fold change) IDP: 0.0640
[3]; metabolite IMP
  Log2(fold change) IMP: -0.0534
[3]; metabolite Inositol
  Log2(fold change) Inositol: 0.0000
[3]; metabolite Isopentyl-PP
  Log2(fold change) Isopentyl-PP: 0.0000
[3]; metabolite L-arginino-succinate
  Log2(fold change) L-arginino-succinate: -0.3693
[3]; metabolite LD
  Log2(fold change) LD: 0.0808
[3]; metabolite Myristoyl/tetradecanoyl-CoA
  Log2(fold change) Myristoyl/tetradecanoyl-CoA: 0.0941
[3]; metabolite N-Acetyl-L-alanine
  Log2(fold change) N-Acetyl-L-alanine: -0.2190
[3]; metabolite N-acetyl-L-ornithine
  Log2(fold change) N-acetyl-L-ornithine: -0.0436
[3]; metabolite N-acetyl-glucosamine-1/6-phosphate
  Log2(fold change) N-acetyl-glucosamine-1/6-phosphate: 0.0000
[3]; metabolite N-acetyl-glutamate
  Log2(fold change) N-acetyl-glutamate: 0.0134
[3]; metabolite N-acetyl-glutamine
  Log2(fold change) N-acetyl-glutamine: 0.0000
[3]; metabolite N-carbamoyl-L-aspartate
  Log2(fold change) N-carbamoyl-L-aspartate: 0.0293
[3]; metabolite NAD+
  Log2(fold change) NAD+: -0.0636
[3]; metabolite NADH
  Log2(fold change) NADH: 0.0000
[3]; metabolite NADP+
  Log2(fold change) NADP+: -0.0054
[3]; metabolite NADPH
  Log2(fold change) NADPH: 0.3297
[3]; metabolite O-acetyl-L-serine
  Log2(fold change) O-acetyl-L-serine: 0.0000
[3]; metabolite Octoluse 8/1P
  Log2(fold change) Octoluse 8/1P: -0.0524
[3]; metabolite Octoluse Bisphosphate
  Log2(fold change) Octoluse Bisphosphate: -0.1015
[3]; metabolite PD
  Log2(fold change) PD: -0.1757
[3]; metabolite PE
  Log2(fold change) PE: -0.0476
[3]; metabolite PEE
  Log2(fold change) PEE: 0.0186
[3]; metabolite PEEK
  Log2(fold change) PEEK: 0.1844
[3]; metabolite PVNF
  Log2(fold change) PVNF: 0.0025
[3]; metabolite Pyroglutamic acid
  Log2(fold change) Pyroglutamic acid: -0.3976
[3]; metabolite Pyrophosphate
  Log2(fold change) Pyrophosphate: 0.0000
[3]; metabolite Ribose-5-phosphate
  Log2(fold change) Ribose-5-phosphate: 0.0147
[3]; metabolite S-adenosyl-L-homocysteine
  Log2(fold change) S-adenosyl-L-homocysteine: 0.1505
[3]; metabolite S-adenosyl-L-methioninamine
  Log2(fold change) S-adenosyl-L-methioninamine: 0.0000
[3]; metabolite S-adenosyl-L-methionine
  Log2(fold change) S-adenosyl-L-methionine: 0.0000
[3]; metabolite S-methyl-5'-thioadenosine
  Log2(fold change) S-methyl-5'-thioadenosine: 0.0813
[3]; metabolite SD
  Log2(fold change) SD: -0.0876
[3]; metabolite SDL
  Log2(fold change) SDL: -0.0202
[3]; metabolite SID
  Log2(fold change) SID: 0.0863
[3]; metabolite Sedoheptulose bisphosphate
  Log2(fold change) Sedoheptulose bisphosphate: 0.1126
[3]; metabolite Thiamine pyrophosphate
  Log2(fold change) Thiamine pyrophosphate: -0.0341
[3]; metabolite UDP-D-glucose, log2 fold change
  Log2(fold changes) UDP-D-glucose: 0.0242
[3]; metabolite UDP-D-glucuronate, log2 fold change
  Log2(fold changes) UDP-D-glucuronate: 0.0727
[3]; metabolite UDP-N-acetyl-glucosamine, log2 fold change
  Log2(fold changes) UDP-N-acetyl-glucosamine: -0.0280
[3]; metabolite UDP, log2 fold change
  Log2(fold changes) UDP: -0.6698
[3]; metabolite UMP, log2 fold change
  Log2(fold changes) UMP: -0.1565
[3]; metabolite UTP, log2 fold change
  Log2(fold changes) UTP: 0.0862
[3]; metabolite hydroxyphenylpyruvate
  Log2(fold change) hydroxyphenylpyruvate: 0.0000
[3]; metabolite hydroxyproline/Aminolevulinate
  Log2(fold change) hydroxyproline/Aminolevulinate: 0.0725
[3]; metabolite hypoxanthine
  Log2(fold change) hypoxanthine: 0.0000
[3]; metabolite indole
  Log2(fold change) indole: 0.0000
[3]; metabolite inosine
  Log2(fold change) inosine: -0.4356
[3]; metabolite isoleucine
  Log2(fold change) isoleucine: -0.0171
[3]; metabolite lactate
  Log2(fold change) lactate: -0.5208
[3]; metabolite leucine
  Log2(fold change) leucine: -0.1746
[3]; metabolite lysine
  Log2(fold change) lysine: -0.1798
[3]; metabolite malate
  Log2(fold change) malate: -0.0910
[3]; metabolite maleic acid
  Log2(fold change) maleic acid: -0.0602
[3]; metabolite methionine
  Log2(fold change) methionine: -0.0405
[3]; metabolite myo-inositol
  Log2(fold change) myo-inositol: -0.7507
[3]; metabolite nicotinamide mononucleotide
  Log2(fold change) nicotinamide mononucleotide: -0.0942
[3]; metabolite nicotinate
  Log2(fold change) nicotinate: -0.4821
[3]; metabolite ornithine
  Log2(fold change) ornithine: 0.0000
[3]; metabolite orotate
  Log2(fold change) orotate: -0.4063
[3]; metabolite orotidine-5'-phosphate
  Log2(fold change) orotidine-5'-phosphate: -0.7157
[3]; metabolite oxaloacetate
  Log2(fold change) oxaloacetate: 0.0000
[3]; metabolite p-aminobenzoate
  Log2(fold change) p-aminobenzoate: 0.0000
[3]; metabolite p-hydroxybenzoate
  Log2(fold change) p-hydroxybenzoate: 0.0000
[3]; metabolite pantothenate
  Log2(fold change) pantothenate: 0.0000
[3]; metabolite phenylalanine
  Log2(fold change) phenylalanine: -0.1685
[3]; metabolite phenylpyruvate
  Log2(fold change) phenylpyruvate: 0.0000
[3]; metabolite phosphoenolpyruvate
  Log2(fold change) phosphoenolpyruvate: 0.1912
[3]; metabolite prephenate
  Log2(fold change) prephenate: 0.0000
[3]; metabolite proline
  Log2(fold change) proline: -0.3045
[3]; metabolite pyridoxine
  Log2(fold change) pyridoxine: -0.5037
[3]; metabolite pyruvate
  Log2(fold change) pyruvate: -0.3898
[3]; metabolite riboflavin
  Log2(fold change) riboflavin: -0.1185
[3]; metabolite ribose
  Log2(fold change) ribose: -0.0288
[3]; metabolite ribose-phosphate
  Log2(fold change) ribose-phosphate: -0.1512
[3]; metabolite ribulose-5-phosphate
  Log2(fold change) ribulose-5-phosphate: 0.0069
[3]; metabolite serine
  Log2(fold change) serine: -0.0430
[3]; metabolite sn-glycerol-3-phosphate
  Log2(fold change) sn-glycerol-3-phosphate: 0.2262
[3]; metabolite succinate/Methylmalonic acid
  Log2(fold change) succinate/Methylmalonic acid: 0.1026
[3]; metabolite succinyl-CoA/methylmalonyl-CoA
  Log2(fold change) succinyl-CoA/methylmalonyl-CoA: 0.0000
[3]; metabolite taurine
  Log2(fold change) taurine: -0.0060
[3]; metabolite thiamine
  Log2(fold change) thiamine: -0.0860
[3]; metabolite threonine/homoserine
  Log2(fold change) threonine/homoserine: -0.1129
[3]; metabolite thymidine
  Log2(fold change) thymidine: 0.0000
[3]; metabolite thymine, log2 fold change
  Log2(fold changes) thymine: 0.0000
[3]; metabolite trehalose-6-Phosphate, log2 fold change
  Log2(fold changes) trehalose-6-Phosphate: 0.0000
[3]; metabolite tryptophan, log2 fold change
  Log2(fold changes) tryptophan: 0.0186
[3]; metabolite tyrosine, log2 fold change
  Log2(fold changes) tyrosine: 0.0223
[3]; metabolite uridine, log2 fold change
  Log2(fold changes) uridine: 0.0000
